Experiments:
L6-myotubes [1] = experiment: Measurement of intracellular cAMP levels in differentiated L6-myotubes (Biological Example 3); format: cell-based; conditions: L6-myotubes; 15 min stimulation; compared with isoprenaline; FIGS. 2a-2d
Summary of the method: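 Serum-starved differentiated L6 myotubes stimulated 15 min with test compound at 1×10^−5 M final (isoprenaline as reference) in HBSS with 1% BSA, 5 mM HEPES, 1 mM IBMX, pH 7.4. Cells EtOH-extracted, lysed, and intracellular cAMP measured by AlphaScreen.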

β2-adrenergic receptor [2] = molecular target: T1, β2-adrenergic receptor (Rattus norvegicus, UniProt P10608); experiment: Glucose uptake in the presence of the selective β2-adrenergic receptor antagonist ICI-118551 (Biological Example 1); format: cell-based; conditions: L6-myotubes; test compound 1×10^−5 M; different concentrations of ICI-118551; FIGS. 1a-1c
T1 construct: endogenous in cells; host or cells: L6 myoblasts differentiated into myotubes
T1 sequence (P10608 whole entry): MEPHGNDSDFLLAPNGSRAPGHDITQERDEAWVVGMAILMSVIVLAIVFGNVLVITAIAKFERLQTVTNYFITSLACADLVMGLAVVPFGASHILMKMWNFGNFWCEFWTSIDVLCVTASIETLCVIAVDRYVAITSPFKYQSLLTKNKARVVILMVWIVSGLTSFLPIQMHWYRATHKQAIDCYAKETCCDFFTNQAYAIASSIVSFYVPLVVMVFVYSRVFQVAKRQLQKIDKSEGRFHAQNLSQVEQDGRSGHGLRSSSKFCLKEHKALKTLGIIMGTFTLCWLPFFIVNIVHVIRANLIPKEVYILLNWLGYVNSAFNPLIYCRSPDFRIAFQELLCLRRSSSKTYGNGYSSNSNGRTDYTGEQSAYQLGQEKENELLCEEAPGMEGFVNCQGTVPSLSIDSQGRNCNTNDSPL
Method: L6-myoblasts were grown in Dulbecco's Modified Eagle's Medium (DMEM) containing 1 g/L glucose supplemented with 10% fetal bovine serum (FBS), 2 mM L-glutamine, 50 U/mL penicillin, 50 μg/mL streptomycin and 10 mM HEPES. Cells were plated at 1×10^5 cells per mL in 24-well plates. After reaching 90% confluence the cells were grown in medium containing 2% FBS for 7 days where upon cells differentiated into myotubes. The differentiated L6-myotubes were serum-starved overnight in medium containing 0.5% fatty-acid free BSA and stimulated with the test compound at a final concentration of 1×10^−5 M in the presence of different concentrations of the selective β2-adrenergic receptor antagonist ICI-118551. After 1 h 40 min the cells were washed with warm, glucose free medium twice and another portion of agonist was added to the glucose free medium. After another 20 min of incubation the cells were exposed to 50 nM ^3H-2-deoxyglucose for 10 min before washed in ice cold glucose free medium three times and lysed in 400 μL/well 0.2 M NaOH for 1 h at 60° C. The cell lysate was mixed with 4 ml scintillation buffer (Emulsifier Safe, Perkin Elmer) and the radioactivity was detected in a β-counter (Tri-Carb 4810TR, Perkin Elmer).

β2-adrenergic receptor [3] = molecular target: T2, β2-adrenergic receptor (Homo sapiens, UniProt P07550); experiment: β-arrestin 2 recruitment, Large BiT/Small BiT luciferase complementation in HEK293 cells (Biological Example 4); format: cell-based; conditions: luminescence after 31 min, compared with isoprenaline, FIGS. 3a-3c
T2 construct: expressed in transfected cells; host or cells: HEK293
T2 sequence (P07550 whole entry, species assumed): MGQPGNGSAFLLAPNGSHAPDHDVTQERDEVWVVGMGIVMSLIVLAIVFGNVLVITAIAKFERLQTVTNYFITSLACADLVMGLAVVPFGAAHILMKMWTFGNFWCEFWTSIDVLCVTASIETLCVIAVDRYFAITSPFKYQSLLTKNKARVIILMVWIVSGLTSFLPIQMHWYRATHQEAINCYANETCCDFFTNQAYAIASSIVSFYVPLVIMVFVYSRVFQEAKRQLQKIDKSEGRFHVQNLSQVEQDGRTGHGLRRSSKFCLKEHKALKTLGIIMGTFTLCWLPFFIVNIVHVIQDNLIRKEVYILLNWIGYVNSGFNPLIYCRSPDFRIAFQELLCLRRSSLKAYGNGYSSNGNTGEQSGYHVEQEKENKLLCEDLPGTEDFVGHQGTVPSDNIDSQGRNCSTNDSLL
Method: HEK293 cells are transfected with both the β2-adrenergic receptor attached with a Large BiT SNAP-tag protein, and with p-arrestin 2 attached to a Small BiT SNAP-tag protein. When cells are stimulated and the receptor recruits β-arrestin 2, the Small- and Large-BiT proteins merge, forming a functional luciferase enzyme, that in presence of furimazine generates light. After 31 min, the light is measured with a luminescence plate reader.

L6-myotubes [4] = experiment: Glucose uptake in differentiated L6-myotubes (Biological Example 2); format: cell-based; conditions: L6-myotubes; FIGS. 2a-2d
Summary of the method: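 Differentiated L6 myotubes were serum-starved overnight in 0.5% fatty-acid-free BSA and then stimulated with compound or isoprenaline at 1×10^−5 M final. After 1 h 40 min cells were washed and re-dosed in glucose-free medium. Twenty minutes later, uptake of 50 nM ^3H-2-deoxyglucose over 10 min was measured by scintillation counting of NaOH lysates.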

C57Bl/6 mice = experiment: Body weight and lean mass in mice treated with dexamethasone (Biological Example 5); format: in vivo; conditions: male C57Bl/6 mice, daily s.c. for 3 weeks, dexamethasone sodium phosphate 10 mg/kg, Compound A 47.1 μmol/kg
Method: 40 eight-week-old male C57Bl/6 mice kept on standard chow diet were grouped-caged (2-3 mice per cage) at 21° C. The mice had similar body weight and body composition and were divided into four groups (n=10) and were treated daily with subcutaneous injections for 3 weeks with either dexamethasone sodium phosphate (10 mg/kg) or Compound A (47.1 μmol/kg (corresponding to dose 10 mg/kg of the free base)), or a combination of dexamethasone and Compound A. Control mice received saline. Body weight and lean mass were measured after 6, 12 and 20 days of treatment.

C57Bl/6N mice = experiment: Combination of Compound C and liraglutide in mice on high-fat, high-sucrose diet (Biological Example 8); format: in vivo; conditions: diet-induced obese mice; daily s.c. for 2 weeks; liraglutide 0.1 mg/kg, Compound C 5 mg/kg; FIG. 12b
Method: 2.5 Months old male C57Bl/6N mice were grouped caged (4-5 mice per cage), kept at 30° C. and fed with high-fat, high-sucrose diet (45% fat) for 5 months. The mice were divided into four groups (2-3 mice per cage) according to their fasting blood glucose levels, glucose tolerance, body weight, body fat and lean mass, and treated daily for 2 weeks, subcutaneously with either vehicle, liraglutide (0.1 mg/kg), Compound C (5 mg/kg), or a mixture of liraglutide (0.1 mg/kg) and Compound C (5 mg/kg). Food intake and body weight were measured every other day; body fat and lean mass were measured weekly.

SMILES | intracellular cAMP levels (L6-myotubes [1]) | glucose uptake promoted by the compound in the presence of ICI-118551 (β2-adrenergic receptor [2]) | β-arrestin 2 recruitment (β2-adrenergic receptor [3]) | glucose uptake (L6-myotubes [4]) | body weight (C57Bl/6 mice; FIG. 4) | lean mass (C57Bl/6 mice; FIG. 5) | change in lean mass (C57Bl/6N mice)
CC(C)(C)NC[C@H](O)c1cccc(F)c1.Cl [Compound A, (R)-2-(tert-Butylamino)-1-(3-fluorophenyl)ethan-1-ol hydrochloride] | low intracellular cAMP levels | inhibited in a dose-dependent manner | minimal p-arrestin 2 recruitment | full glucose uptake response | effect is reversed | effect is reversed | 
CC(C)(C)NC[C@H](O)c1ccc(F)c(N)c1F.O=C(O)/C=C\C(=O)O [Compound C, (R)-1-(3-Amino-2,4-difluorophenyl)-2-(tert-butylamino)ethan-1-ol maleate] | low intracellular cAMP levels | inhibited in a dose-dependent manner | minimal p-arrestin 2 recruitment | full glucose uptake response |  |  | significantly lower as compared to administration of liraglutide alone

Reference: patent US20260216294A1, “BETA 2-ADRENERGIC RECEPTOR AGONISTS FOR TREATMENT OR PREVENTION OF MUSCLE WASTING” (ATROGI AB, priority 2023, published 2026)
